# Assay results reported in PubChem BioAssay AID330 (DTP/NCI, 2004).
# Several values for one entry are separate records, joined by “and”; a condition that tells them apart may be missing. Equal entries are not always repeated. Inconclusive results and toxic doses are left out.
# Tested on: P388 leukemia ip, CD2F1 mice, survival T/C
# Assay: NCI In Vivo Anticancer Drug Screen. Data for tumor model P388 Leukemia (intraperitoneal) in CD2F1 (CDF1) mice
# Conditions: endpoint: median survival time, higher = longer survival
# Method in brief: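 Mice carrying the transplanted tumor received test compound or vehicle. Survival was recorded in each group, and the value is the treated-group measurement divided by that of the vehicle-treated control group.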
# [1] = dose: 50.0 mg/kg/injection, schedule: Q01DX005 (ip), vehicle: saline with Tween-80
# [2] = dose: 100.0 mg/kg/injection, schedule: Q01DX005 (ip), vehicle: saline with Tween-80
# [3] = dose: 200.0 mg/kg/injection, schedule: Q01DX005 (ip), vehicle: saline with Tween-80
# [4] = dose: 50.0 mg/kg/injection, schedule: Q01DX005 (ip), vehicle: Klucel (hydroxypropylcellulose) (HPC)
# [5] = dose: 100.0 mg/kg/injection, schedule: Q01DX005 (ip), vehicle: Klucel (hydroxypropylcellulose) (HPC)
# [6] = dose: 200.0 mg/kg/injection, schedule: Q01DX005 (ip), vehicle: Klucel (hydroxypropylcellulose) (HPC)
# [7] = dose: 100.0 mg/kg/injection, schedule: Q04DX003 (ip), vehicle: Klucel (hydroxypropylcellulose) (HPC)
# [8] = dose: 200.0 mg/kg/injection, schedule: Q04DX003 (ip), vehicle: Klucel (hydroxypropylcellulose) (HPC)
# [9] = dose: 50.0 mg/kg/injection, schedule: Q01DX009 (ip), vehicle: Klucel (hydroxypropylcellulose) (HPC)
# [10] = dose: 100.0 mg/kg/injection, schedule: Q01DX009 (ip), vehicle: Klucel (hydroxypropylcellulose) (HPC)
# [11] = dose: 200.0 mg/kg/injection, schedule: Q01DX009 (ip), vehicle: Klucel (hydroxypropylcellulose) (HPC)
# [12] = dose: 50.0 mg/kg/injection, schedule: Q01DX009 (ip), vehicle: saline
# [13] = dose: 100.0 mg/kg/injection, schedule: Q01DX009 (ip), vehicle: saline
# [14] = dose: 25.0 mg/kg/injection, schedule: Q01DX009 (ip), vehicle: saline with Tween-80
# [15] = dose: 50.0 mg/kg/injection, schedule: Q01DX009 (ip), vehicle: saline with Tween-80
# [16] = dose: 100.0 mg/kg/injection, schedule: Q01DX009 (ip), vehicle: saline with Tween-80
# [17] = dose: 100.0 mg/kg/injection, schedule: Q04DX003 (ip), vehicle: saline with Tween-80
# [18] = dose: 100.0 mg/kg/injection, schedule: Q04DX003 (ip), vehicle: saline
# [19] = dose: 200.0 mg/kg/injection, schedule: Q04DX003 (ip), vehicle: saline
# [20] = dose: 400.0 mg/kg/injection, schedule: Q04DX003 (ip), vehicle: saline
# [21] = dose: 12.5 mg/kg/injection, schedule: Q01DX009 (ip), vehicle: saline with Tween-80
smiles,measurement,setting,value
NC(CC(=O)O)CC(=O)O,T/C,"dose: 25.0 mg/kg/injection, schedule: Q01DX005 (ip), vehicle: saline with Tween-80",93 % of control
same,T/C,[1],95 % of control
same,T/C,[2],98 % of control
same,T/C,[3],90 % of control
same,T/C,"dose: 400.0 mg/kg/injection, schedule: Q01DX005 (ip), vehicle: saline with Tween-80",89 % of control
Cn1c2c(c(=O)c3cc(O)ccc31)CC(O)C(C)(C)O2 (centres undefined),T/C,[4],102 % of control
same,T/C,[5],94 % of control
same,T/C,[6],86 % of control
O=c1oc2c(c(N(c3ccccc3)c3ccccc3)c1Cl)Cc1ccccc1CC2,T/C,"dose: 50.0 mg/kg/injection, schedule: Q04DX003 (ip), vehicle: Klucel (hydroxypropylcellulose) (HPC)",95 % of control
same,T/C,[7],92 % of control
same,T/C,[8],91 % of control
O=C(c1ccccc1)C12CCC3CC(CC(C3)C1)C2,T/C,[9],100 % of control
same,T/C,[10],99 % of control
same,T/C,[11],100 % of control
COP(=O)(CS(=O)(=O)Oc1ccc(S(C)(=O)=O)cc1)OC,T/C,"dose: 3.12 mg/kg/injection, schedule: Q01DX005 (ip), vehicle: Klucel (hydroxypropylcellulose) (HPC)",97 % of control
same,T/C,"dose: 6.25 mg/kg/injection, schedule: Q01DX005 (ip), vehicle: Klucel (hydroxypropylcellulose) (HPC)",100 % of control
same,T/C,"dose: 12.5 mg/kg/injection, schedule: Q01DX005 (ip), vehicle: Klucel (hydroxypropylcellulose) (HPC)",99 % of control
same,T/C,"dose: 25.0 mg/kg/injection, schedule: Q01DX005 (ip), vehicle: Klucel (hydroxypropylcellulose) (HPC)",97 % of control
O=P(O)(O)OC1C(OP(=O)(O)O)C(OP(=O)(O)O)C(OP(=O)(O)O)C(OP(=O)(O)O)C1OP(=O)(O)O (centres undefined),T/C,[12],94 % of control
same,T/C,[13],94 % of control
same,T/C,"dose: 200.0 mg/kg/injection, schedule: Q01DX009 (ip), vehicle: saline",102 % of control
Clc1ccc(C2NCCNCc3ccccc32)cc1 (centres undefined),T/C,[14],101 % of control
same,T/C,[15],107 % of control
same,T/C,[16],98 % of control and 115 % of control
COc1c2ccoc2cc2oc(=O)ccc12,T/C,[4],102 % of control
same,T/C,[5],96 % of control
same,T/C,[6],93 % of control
NC(=O)Cc1nn[nH]n1,T/C,[7],106 % of control
same,T/C,[8],103 % of control
same,T/C,"dose: 400.0 mg/kg/injection, schedule: Q04DX003 (ip), vehicle: Klucel (hydroxypropylcellulose) (HPC)",107 % of control
CC(=O)C1=C(O)C2(O)C(=O)c3c(c(C)c4ccc(C)c(O)c4c3O)CC2C(N)C1=O (centres undefined),T/C,"dose: 7.5 mg/kg/injection, schedule: Q01DX009 (ip), vehicle: saline + alcohol",103 % of control and 107 % of control and 120 % of control
same,T/C,"dose: 15.0 mg/kg/injection, schedule: Q01DX009 (ip), vehicle: saline + alcohol",103 % of control
same,T/C,"dose: 30.0 mg/kg/injection, schedule: Q01DX009 (ip), vehicle: saline + alcohol",119 % of control
same,T/C,"dose: 50.0 mg/kg/injection, schedule: Q04DX003 (ip), vehicle: saline with Tween-80",111 % of control
same,T/C,[17],111 % of control
Cc1ccc(S(=O)(=O)/N=C/[N-][n+]2cccc(C)c2)cc1,T/C,[18],104 % of control
same,T/C,[19],97 % of control
same,T/C,[20],97 % of control
CCOc1ccc(NC(=O)OCCN2CCN(CCc3ccccc3)C(C)C2)cc1 (centres undefined),T/C,[21],97 % of control
same,T/C,[14],94 % of control
same,T/C,[15],100 % of control
COC(=O)C12OCC34C(CC5C(C)=CC(=O)C(O)C5(C)C3C(O)C1O)OC(=O)C(OC(=O)CC(C)C)C24 (centres undefined),T/C,"dose: 0.25 mg/kg/injection, schedule: Q01DX009 (ip), vehicle: saline + alcohol",124 % of control
same,T/C,"dose: 0.5 mg/kg/injection, schedule: Q01DX009 (ip), vehicle: saline + alcohol",122 % of control
same,T/C,"dose: 2.0 mg/kg/injection, schedule: Q01DX009 (ip), vehicle: saline + alcohol",163 % of control
C=CCCc1c(OC)cccc1C1=NC(C)(C)CO1,T/C,[1],106 % of control
same,T/C,[2],102 % of control
same,T/C,[3],100 % of control
COc1ccc(C2=Nc3ccccc3SC(c3ccc(OC)cc3)C2)cc1 (centres undefined),T/C,[9],102 % of control
same,T/C,[10],96 % of control
same,T/C,[11],88 % of control
ClCCN(CCCl)c1ccc(/C=N/Nc2ccc3ccccc3n2)cc1,T/C,[17],110 % of control
same,T/C,"dose: 200.0 mg/kg/injection, schedule: Q04DX003 (ip), vehicle: saline with Tween-80",109 % of control
same,T/C,"dose: 400.0 mg/kg/injection, schedule: Q04DX003 (ip), vehicle: saline with Tween-80",106 % of control
CC1(C)C2CCC(CN)C1C2 (centres undefined),T/C,"dose: 12.5 mg/kg/injection, schedule: Q01DX009 (ip), vehicle: other",96 % of control
same,T/C,"dose: 25.0 mg/kg/injection, schedule: Q01DX009 (ip), vehicle: other",97 % of control
same,T/C,"dose: 50.0 mg/kg/injection, schedule: Q01DX009 (ip), vehicle: other",100 % of control
COC1OC2COC(c3ccccc3)OC2C(N=Cc2ccccc2)C1O (centres undefined),T/C,"dose: 60.0 mg/kg/injection, schedule: Q01DX005 (ip), vehicle: saline with Tween-80",104 % of control
same,T/C,"dose: 120.0 mg/kg/injection, schedule: Q01DX005 (ip), vehicle: saline with Tween-80",103 % of control
same,T/C,"dose: 240.0 mg/kg/injection, schedule: Q01DX005 (ip), vehicle: saline with Tween-80",100 % of control
O=[N+]([O-])c1ccc(/C(=C/c2ccc(Cl)cc2Cl)S(=O)(=O)C(Cl)Cl)o1,T/C,"dose: 50.0 mg/kg/injection, schedule: Q01DX009 (ip), vehicle: suspension in saline",86 % of control
same,T/C,"dose: 100.0 mg/kg/injection, schedule: Q01DX009 (ip), vehicle: suspension in saline",96 % of control
same,T/C,"dose: 200.0 mg/kg/injection, schedule: Q01DX009 (ip), vehicle: suspension in saline",103 % of control
O=c1c2cc3ccccc3cc2c(=O)n2n1CC(O)C(Br)C2 (centres undefined),T/C,"dose: 25.0 mg/kg/injection, schedule: Q01DX009 (ip), vehicle: DMSO",101 % of control
same,T/C,"dose: 50.0 mg/kg/injection, schedule: Q01DX009 (ip), vehicle: DMSO",105 % of control
same,T/C,"dose: 100.0 mg/kg/injection, schedule: Q01DX009 (ip), vehicle: DMSO",105 % of control
[Cl][Co][Cl].[NH-]CC[N-]CC[N-]CC[NH-],T/C,"dose: 12.5 mg/kg/injection, schedule: Q01DX005 (ip), vehicle: saline",100 % of control
same,T/C,"dose: 25.0 mg/kg/injection, schedule: Q01DX005 (ip), vehicle: saline",104 % of control
same,T/C,"dose: 50.0 mg/kg/injection, schedule: Q01DX005 (ip), vehicle: saline",114 % of control and 107 % of control and 113 % of control
same,T/C,[12],102 % of control
same,T/C,"dose: 100.0 mg/kg/injection, schedule: Q01DX005 (ip), vehicle: saline",109 % of control
same,T/C,[13],100 % of control
CSC(=S)/C=C1\SC=CN1C,T/C,"dose: 25.0 mg/kg/injection, schedule: Q04DX002 (ip), vehicle: saline with Tween-80",96 % of control
same,T/C,"dose: 50.0 mg/kg/injection, schedule: Q04DX002 (ip), vehicle: saline with Tween-80",100 % of control
same,T/C,"dose: 100.0 mg/kg/injection, schedule: Q04DX002 (ip), vehicle: saline with Tween-80",100 % of control
O=C(O)c1nccc2ccccc12,T/C,[21],103 % of control
same,T/C,[14],103 % of control
same,T/C,[15],105 % of control
same,T/C,[16],106 % of control
CN(C)C(=O)n1cnc([N+](=O)[O-])c1,T/C,"dose: 100.0 mg/kg/injection, schedule: Q01DX001 (ip), vehicle: saline with Tween-80",97 % of control
same,T/C,"dose: 200.0 mg/kg/injection, schedule: Q01DX001 (ip), vehicle: saline with Tween-80",112 % of control
CC1=CC(=O)C(C(C)C)=CC1=O,T/C,"dose: 0.75 mg/kg/injection, schedule: Q01DX009 (ip), vehicle: saline with Tween-80",100 % of control
same,T/C,"dose: 1.5 mg/kg/injection, schedule: Q01DX009 (ip), vehicle: saline with Tween-80",104 % of control
same,T/C,"dose: 3.0 mg/kg/injection, schedule: Q01DX009 (ip), vehicle: saline with Tween-80",104 % of control
C[C@]12CCC[C@H](O)[C@H]1O2,T/C,[18],104 % of control
same,T/C,[19],102 % of control
same,T/C,[20],102 % of control
CCOC(=O)C(Cc1csc2ccc(Cl)cc12)(NC(C)=O)C(=O)OCC,T/C,[9],96 % of control
same,T/C,[10],96 % of control
same,T/C,[11],94 % of control
